The target in the assay is T1, LTD4 receptor (Cavia porcellus, UniProt Q2NNR5).
T1 construct: guinea-pig lung membranes; from tissue; host or cells: guinea-pig lung membranes
T1 sequence (Q2NNR5 1-340): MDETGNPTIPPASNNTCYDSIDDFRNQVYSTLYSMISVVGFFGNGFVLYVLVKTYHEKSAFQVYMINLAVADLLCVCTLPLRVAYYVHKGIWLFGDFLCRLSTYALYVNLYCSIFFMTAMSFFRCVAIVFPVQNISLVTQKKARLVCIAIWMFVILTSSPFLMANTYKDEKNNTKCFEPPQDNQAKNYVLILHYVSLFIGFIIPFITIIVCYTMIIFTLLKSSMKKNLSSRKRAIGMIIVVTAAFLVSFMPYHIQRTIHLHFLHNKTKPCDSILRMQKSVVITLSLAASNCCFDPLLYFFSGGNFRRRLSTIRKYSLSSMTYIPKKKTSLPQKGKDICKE
Put plainly: [3H]LTD4 competition binding to guinea-pig lung membranes. The conditions noted are these: negative logarithm of molar concentration, read-out: pIC50 for [3H]LTD4 binding (converted). The source says:
It is of importance to investigate the receptor binding properties of leukotriene antagonists in relation to their inhibition of smooth muscle contraction. Receptor binding studies may be performed with guinea-pig lung membranes in a direct competition assay between a leukotriene antagonist and [^3 H]LTD4 for binding to the LTD4 receptor ^10,^11. […] These values indicate that the affinities of the compounds for the LTD4 receptor are very high, also in the presence of albumin.

Setting [1] is: presence of 0.1% human serum albumin.

Counter-ions that a name gives are not always drawn. Like-named read-outs stand apart in the source and are kept apart here.

In the case of `O=C(O)[C@H](O)[C@H](Nc1cccc(/C=C/c2ccc3ccc(Cl)cc3n2)c1)c1ccccc1` (relative stereo) [Example 6, E-(2R,3R;2S,3S)-N-3-[2-(7-chloroquinolyl)-2-ethenyl]-phenyl-3-phenyl isoserine, sodium salt], the IC50 is 2 nM (absence of human serum albumin) and 6.31 nM under setting [1].

For `O=C(O)[C@H](O)[C@H](Nc1cccc(/C=C/c2ccc3ccccc3n2)c1)c1ccccc1` (relative stereo) [Example 17, E-(2R,3R;2S,3S)-3-phenyl-N-3-[(2-quinolyl)-2-ethenyl]-phenyl isoserine, sodium salt], the IC50 by setting is: (absence of human serum albumin) 2.51 nM; under setting [1], 20 nM.
